We go through 30 compounds from PubChem BioAssay (NCI).

Holding throughout (assay): NCI-60 cell line screen, 48 h
The test system of assay [1] is SK-OV-3 ovarian.
Assay [2] deals with LOX IMVI melanoma.
The subject of assay [3] is HCC-2998 colon.
In assay [4] the test system is HT29 colon.
The test system of assay [5] is U251 CNS.
Assay [6] concerns TK-10 renal.
The subject of assay [7] is SK-MEL-28 melanoma.
Assay [8] has as its system CAKI-1 renal.
The test system of assay [9] is 786-0 renal.

Structures are written as SMILES.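 Dose response: 5 concentrations. Exposure: 48 h. Format: 96-well plates. Endpoint: linear interpolation; highest concentration if not reached. The concentration for 50% growth inhibition is given as GI50. TGI: concentration producing complete growth inhibition.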

Consider `CC(=O)NNc1nc(C)c(C(=O)NNC(=O)C(=O)Nc2ccccc2C#N)s1`, for which the TGI in assay [1], in assay [2], in assay [3], in assay [4], in assay [5] and in [6] was greater than 100 µM in each case. In addition, the TGI in assay [7], in assay [8] and in [9] was greater than 100 µM in each case.

As to `Cc1cccc(NC(=O)CC(=O)N2N=C(N(CCC#N)c3ccc(Cl)cc3)CC2c2ccccc2)c1` (stereo unspecified), the TGI in assay [2], in assay [3], in assay [4], in [5], in assay [6] and in [7] was greater than 100 µM throughout. The TGI in [8] and in [9] was greater than 100 µM throughout.

As to `CNS(=O)(=O)NN(C)S(=O)(=O)c1ccc(F)cc1`, the TGI in assay [1], in [2], in assay [3], in assay [4], in assay [5] and in assay [6] was greater than 100 µM in each case. Further, the TGI in assay [7], in [8] and in assay [9] was greater than 100 µM throughout.

With `O=Cc1cn(C(=O)c2ccccc2)c2ccccc12`, the TGI in assay [1], in assay [3], in [4], in assay [5], in assay [6] and in assay [7] was greater than 100 µM throughout. Further, the TGI in assay [8] and in assay [9] was greater than 100 µM each time.

Take `O=C(CP(=O)(O)O)c1cccs1`: the TGI in assay [1], in assay [2], in [3], in [4], in [5] and in assay [6] was greater than 100 µM each time. Besides, the TGI in assay [7], in [8] and in assay [9] was greater than 100 µM each time.

Take `CCNC(=O)Nc1ccccn1`: the TGI in assay [1], in [3], in assay [4], in assay [5], in [6] and in assay [7] was greater than 100 µM in each case. Further, the TGI in assay [8] and in assay [9] was greater than 100 µM throughout.

As to `CSC1CC2C(CC1(C)O)C2(C)C` (stereo unspecified), the TGI in assay [1], in assay [2], in assay [3], in assay [4], in assay [5] and in [6] was greater than 100 µM each time. The TGI in assay [7], in [8] and in [9] was greater than 100 µM each time.

On to `C=CCC1([C@H](C)[C@@H](OC(C)=O)c2cc(OC)c(OC)c(OC)c2)C[C@@H](OC)CCC1=O` (stereo partly specified), for which the TGI in assay [1] was greater than 100 µM; in [4], 38 µM; in assay [5] it was 26.7 µM; in assay [6], greater than 100 µM; in [7] it was 52.4 µM; in assay [8], greater than 100 µM. In assay [9], this compound yielded a TGI of 26.7 µM.

With `OC[C@@H](O)[C@H]1NC[C@@H](O)[C@H]1O`, the TGI in [1], in [3], in assay [4], in assay [5], in [6] and in assay [7] was greater than 100 µM in each case. Also, the TGI in [8] and in [9] was greater than 100 µM in each case.

Regarding `Cc1ccc(-c2c(N)[n+]([O-])c3ccccc3[n+]2[O-])cc1`, the TGI came out at 35.9 µM in assay [1]; 25.4 µM in assay [2]; 30.1 µM in assay [3]; 31.4 µM in [4]; 27.8 µM in [5]; 33 µM in assay [6]. For the same compound, the TGI in assay [7] was 20 µM; in [8], 9.97 µM; in [9], 28.6 µM.

As for `O=C([O-])c1ccccc1Nc1ccccn1.O=C([O-])c1ccccc1Nc1ccccn1.[Ni+2]`, the GI50 in assay [1] is greater than 100 µM; in [2] it was greater than 100 µM; in assay [3] it was greater than 100 µM; in assay [4], greater than 100 µM; in assay [5] it was greater than 100 µM; in [7] it was 58.9 µM. Also, the GI50 in assay [8] and in assay [9] was greater than 100 µM in each case. The TGI in assay [1], in assay [2], in assay [3], in [4], in assay [5] and in assay [7] was greater than 100 µM each time. The TGI in assay [8] and in assay [9] was greater than 100 µM each time.

Turning to `Cc1cc(N(CCC#N)S(=O)(=O)c2ccccc2)ccc1/C=C1N=C(/C=C/c2ccccc2)OC\1=O`, the TGI in assay [1], in assay [2], in assay [3], in assay [4], in [5] and in assay [6] was greater than 100 µM in each case. The TGI in [7], in assay [8] and in assay [9] was greater than 100 µM in each case.

As to `CC1=NCCc2c1[nH]c1cc(O)ccc21`, the TGI in [1], in assay [2], in assay [3], in assay [4], in [6] and in assay [7] was greater than 100 µM throughout. Moreover, the TGI in assay [8] and in assay [9] was greater than 100 µM throughout.

Consider `O=c1c2c([nH]c3cc4c(cc13)OCO4)-c1ccccc1CC2`, for which the TGI in [2], in [3], in assay [4], in assay [5], in assay [6] and in assay [7] was greater than 100 µM each time. Besides, in [9], the TGI was greater than 100 µM.

As for `COc1ccccc1NC(=O)C1=C(C)NC(C)=C(C(=O)Nc2ccccc2OC)C1c1ccccc1F`, the TGI in [1], in assay [2], in [3], in assay [4], in [5] and in assay [6] was greater than 100 µM in each case. Also, the TGI in [7], in assay [8] and in assay [9] was greater than 100 µM throughout.

In the case of `COC(=O)c1csnn1`, the TGI in assay [1], in [2], in assay [3], in assay [4], in assay [5] and in [6] was greater than 100 µM each time. Also, the TGI in [7] and in assay [9] was greater than 100 µM each time.

As to `CCCc1[nH]nc(CCC(=O)N(Cc2ccccc2)Cc2ccccc2)c1CC`, the TGI in [1], in [2], in assay [3], in assay [4], in assay [6] and in assay [7] was greater than 100 µM throughout. Also, the TGI in assay [8] and in [9] was greater than 100 µM throughout.

With `Cc1ccncc1.[O]=[Ge].[O]=[Ge].[O]=[Ge].[O]=[Ge].[O]=[Ge].[O]=[Ge][OH].[O]=[Ge][OH]`, the GI50 in assay [2], in assay [3], in assay [4], in [6], in [7] and in [8] was greater than 100 µM each time. In addition, in assay [9], the GI50 was greater than 100 µM. Besides, the TGI in [2], in assay [3], in [4], in [6], in [7] and in assay [8] was greater than 100 µM in each case. Besides, the TGI in assay [9] was greater than 100 µM.

`COc1cccc(NC(=O)CC(=O)N2N=C(N(CCC#N)c3ccc(Cl)cc3)CC2c2ccccc2)c1` (stereo unspecified): the TGI in assay [1], in assay [2], in assay [3], in assay [4], in assay [5] and in assay [6] was greater than 100 µM each time. The TGI in [7], in [8] and in assay [9] was greater than 100 µM throughout.

For the compound `COc1nc(NC2OCC(OC(C)=O)C(OC(C)=O)C2OC(C)=O)c(N=CC=Nc2c(NC3OCC(OC(C)=O)C(OC(C)=O)C3OC(C)=O)nc(OC)n(C)c2=O)c(=O)n1C` (stereo unspecified), the TGI in [1], in assay [2], in [3], in assay [4], in assay [5] and in assay [6] was greater than 100 µM each time. In addition, the TGI in assay [7] and in assay [9] was greater than 100 µM in each case.

With `CC1CCCCc2nc3c(c(=O)n21)CCCC3` (stereo unspecified), the TGI in assay [1], in assay [2], in assay [3], in assay [4], in assay [5] and in [6] was greater than 100 µM throughout. The TGI in assay [7], in assay [8] and in [9] was greater than 100 µM throughout.

On to `CCCCCCCCCCCCOC(=S)NCCCC`, for which the TGI in assay [1] was 71.1 µM; in [2], 32 µM; in [3] it was 34 µM; in [4], 38.1 µM; in assay [5], 37.2 µM; in assay [6], greater than 100 µM. Also, the TGI in [7] is 90.9 µM; in [9], 67.7 µM.

On to `CC(C)C(=O)Nc1nc2nc[nH]c2c(=O)[nH]1`, for which the TGI in assay [1], in assay [2], in assay [3], in assay [4], in assay [5] and in assay [6] was greater than 100 µM throughout. The TGI in [7], in [8] and in assay [9] was greater than 100 µM throughout.

As for `C[N+](C)(C)CC(=O)N/N=C(/Cc1nc2c3c(ccc2[nH]c1=O)C(=O)c1ccccc1C3=O)C(=O)Nc1ccc(Cl)c(Cl)c1`, the TGI in assay [1] is greater than 100 µM; in assay [3], greater than 100 µM; in assay [4], greater than 100 µM; in [6], greater than 100 µM; in assay [7], greater than 100 µM; in [8], 87 µM. Also, the TGI in assay [9] is greater than 100 µM.

Take `COC(=O)CCC1CCc2c(OC)ccc(O)c2C1=O` (stereo unspecified): the TGI in assay [1], in [2], in [3], in assay [4], in assay [5] and in [6] was greater than 100 µM in each case. The TGI in [7] and in [9] was greater than 100 µM throughout.

On to `COC(=O)CCC(NC(=S)N/N=C(\C)c1nccs1)C(=O)OC` (stereo unspecified), for which the TGI in assay [1], in assay [2], in assay [3], in [4], in assay [5] and in assay [6] was greater than 100 µM throughout. Moreover, the TGI in [7] and in assay [9] was greater than 100 µM throughout.

As for `COc1ccc2c(c1)C(O)(C(F)(F)F)c1cc(C(=O)C(F)(F)F)c3ccccc3c1N2` (stereo unspecified), the TGI in assay [1] came to 31.6 µM; in assay [2], 16.5 µM; in assay [3], 24.3 µM; in assay [4], 20.3 µM; in assay [6] it was 27.4 µM; in [7] it was 27.7 µM. For the same compound, the TGI in assay [8] was 26.8 µM; in assay [9], 26.3 µM.

`COc1cc(/C=C2\C(=O)N(C(=O)Cc3ccccc3)N=C2C)ccc1O`: the TGI in [2], in assay [3], in [6], in [7], in [8] and in [9] was greater than 100 µM each time.

Turning to `N#CC(C(=O)/C(=N/NC(=O)c1ccccc1O)C(C#N)c1ccc(Cl)cc1)c1ccc(Cl)cc1` (stereo unspecified), the TGI in assay [1] is 90.5 µM; in [2] it was 27.3 µM; in assay [4] it was 24.6 µM; in assay [5], 22.5 µM; in assay [6], 31.3 µM; in [7], 27.7 µM. The TGI in [9] is 29.9 µM.

Turning to `O=C(O)c1ccc([Se][Se]c2ccc(C(=O)O)cc2)cc1`, the TGI is greater than 100 µM in assay [3]; 49.6 µM in assay [5]; 54.1 µM in assay [6]; 55.6 µM in assay [7]; 36.7 µM in assay [8]; greater than 100 µM in [9].
